In patent publication US10092510B2, “Veterinary method for inducing emesis” (Orion Corporation, priority 2013, dated 2018):
Several values for one entry are separate records, joined by “and”; a condition that tells them apart may be missing. Identical values can stand only once. Counter-ions that a name gives are not always drawn. Like-named read-outs stand apart in the source and are kept apart here.

Tested on: dogs
[1] = average of 6 dogs, pH 10, conc. 5 mg/ml, dose 30 μg/kg, both eyes
[2] = individual dogs 1-6, pH 10, conc. 5 mg/ml, dose 30 μg/kg, both eyes
[3] = average of 6 dogs, pH 4, conc. 10 mg/ml, dose 50 μg/kg, both eyes, fasted
[4] = average of 6 dogs, pH 4, conc. 40 mg/ml, dose 100 μg/kg, right eye, fed
[5] = individual dogs 1-6, pH 4, conc. 10 mg/ml, dose 50 μg/kg, both eyes, fasted, hydrochloride
[6] = individual dogs 1-6, pH 4, conc. 40 mg/ml, dose 100 μg/kg, right eye, fed, hydrochloride

Method: Aqueous eye drop solution comprising ropinirole hydrochloride (10 mg/ml or 40 mg/ml, pH 4) was administered into the eyes of six test dogs with doses of 50 μg/kg and 100 μg/kg for induction of emesis.

CCCN[C@H]1CCc2nc(N)sc2C1 [Pramipexole]
Number of vomits [1]: 3.3 | Onset of the first vomit (average induction time for emesis) [1]: 4.5 min | The last vomit (vomiting ended on the average) [1]: 31.3 min | Prolonged emesis or irritation (eye drop solution 5 mg/ml, pH 10, dose 30 μg/kg, six dogs): No prolonged emesis or significant irritation | Number of vomits [2]: 6 (2×) and 1 (2×) and 3 (2×) | Onset of the first vomit [2]: 2 min and 3 min (3×) and 4 min and 12 min | The last vomit [2]: 62 min (2×) and 3 min and 27 min and 22 min and 12 min

CCCN(CCC)CCc1cccc2c1CC(=O)N2 [Ropinirole HCl, Ropinirole hydrochloride]
Number of vomits [3]: 3.5 | Onset of the first vomit (average induction time for emesis) [3]: 6.7 min | The last vomit (vomiting ended on the average) [3]: 20.5 min | Number of vomits [4]: 2.3 | Onset of the first vomit (average induction time for emesis) [4]: 4.8 min | The last vomit (vomiting ended on the average) [4]: 12.3 min | Time at which vomiting ends, from the administration (eye drop composition, general statement (typically)): ≤ 20 min | Onset of emesis and tolerability when administered to the eye of the animal (general statement of findings): consistent and rapid onset of emesis without producing unnecessarily prolonged emesis, ocular discomfort or significant local irritation | Number of vomits [5]: 3 (4×) and 2 and 7 | Onset of the first vomit [5]: 7 min and 6 min (3×) and 4 min and 11 min | The last vomit [5]: 21 min and 20 min (2×) and 14 min and 12 min and 36 min | Number of vomits [6]: 2 (3×) and 1 and 4 and 3 | Onset of the first vomit [6]: 6 min (2×) and 2 min and 7 min and 5 min and 3 min | The last vomit [6]: 9 min and 10 min and 7 min and 15 min and 20 min (2×) | Dogs vomiting / dogs treated (pH 4, conc. 10 mg/ml, dose 50 μg/kg, both eyes, fasted): Average 6/6 | Dogs vomiting / dogs treated (pH 4, conc. 40 mg/ml, dose 100 μg/kg, right eye, fed): Average 6/6
